25 compounds from patent US20100227859A1, “TRICYCLIC COMPOUNDS AS MATRIX METALLOPROTEINASE INHIBITORS” (priority 2007, published 2010) can be followed below.

pIC50: −log10 of the molar value. Some results are limits rather than exact numbers.

For this assay, the target named is purified human MMP-12 enzyme (Homo sapiens, UniProt P39900). Nature of the assay: MMP-12 FRET assay. In kind it is biochemical. Particulars: substrate 20 μM, room temperature. The essentials: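 Enzyme pre-incubated 30 min at room temperature with compound in 50 mM HEPES pH 7.4, 100 mM NaCl, 5 mM CaCl2, 0.005% Brij-35, 10% DMSO final. Reaction started with 20 μM MCA-Pro-Leu-Gly-Leu-Dpa(DNP)-Ala-Arg, and initial cleavage rate read over 30 min (λex 325, λem 395 nm). IC50 from slope-factor inhibition fit.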
purified human MMP-12 enzyme, sequence (P39900 106-470): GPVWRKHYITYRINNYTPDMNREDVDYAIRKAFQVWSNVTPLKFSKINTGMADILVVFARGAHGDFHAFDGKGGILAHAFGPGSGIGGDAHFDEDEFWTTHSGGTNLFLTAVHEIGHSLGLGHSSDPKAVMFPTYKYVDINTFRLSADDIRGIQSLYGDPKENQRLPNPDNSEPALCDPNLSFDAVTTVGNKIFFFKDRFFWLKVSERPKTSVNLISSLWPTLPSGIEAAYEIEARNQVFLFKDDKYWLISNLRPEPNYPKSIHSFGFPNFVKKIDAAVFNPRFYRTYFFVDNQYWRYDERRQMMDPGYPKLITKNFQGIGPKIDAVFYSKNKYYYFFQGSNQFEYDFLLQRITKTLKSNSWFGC
Broadly, the pIC50 is the IC50 on a negative log10 scale, so that one unit is a factor of ten. A lower pIC50 goes with a high IC50. Compound `CC(C)[C@H](NS(=O)(=O)c1ccc2c(c1)sc1ccc(-c3ccc[nH]3)cc12)C(=O)O` [Compound 57, (S)-2-(8-(1H-pyrrol-2-yl)dibenzo[b,d]thiophene-3-sulfonamido)-3-methylbutanoic acid] gave a pIC50 of 7.68.

Consider `CC(C)[C@H](NS(=O)(=O)c1ccc2c(c1)oc1ccc(C(=N)N3CCCC3)cc12)C(=O)O` [Compound 127, (S)-2-(8-(imino(pyrrolidin-1-yl)methyl)dibenzo[b,d]furan-3-sulfonamido)-3-methylbutanoic acid], for which the negative-log IC50 (pIC50) was 6.76.

Compound `CC(C)[C@H](NS(=O)(=O)c1ccc2c(c1)oc1ccc(-c3nc4c(F)c(F)c(F)cc4s3)cc12)C(=O)O` [Compound 222, (S)-3-methyl-2-(8-(4,5,6-trifluorobenzo[d]thiazol-2-yl)dibenzo[b,d]furan-3-sulfonamido)butanoic acid] had a pIC50 of 8.31.

In turn, `Cc1c(-c2ccc3oc4cc(S(=O)(=O)N[C@H](C(=O)O)C(C)C)ccc4c3c2)cnn1-c1ccccc1` [Compound 162, (S)-3-methyl-2-(8-(5-methyl-1-phenyl-1H-pyrazol-4-yl)dibenzo[b,d]furan-3-sulfonamido)butanoic acid] had a pIC50 of over 8.82.

`CC(C)[C@H](NS(=O)(=O)c1ccc2c(c1)sc1ccc(/C=C/C3CCCCC3)cc12)C(=O)O` [Compound 58, (S,E)-2-(8-(2-cyclohexylvinyl)dibenzo[b,d]thiophene-3-sulfonamido)-3-methylbutanoic acid]: the pIC50 was 7.74.

Take `COc1ccc(-c2ccc3oc4cc(S(=O)(=O)N[C@H](C(=O)O)C(C)C)ccc4c3c2)cc1` [Compound 310, (S)-2-(8-(4-methoxyphenyl)dibenzo[b,d]furan-3-sulfonamido)-3-methylbutanoic acid]: the pIC50 is over 8.82.

In turn, `COc1ccc2nc(-c3ccc4c(c3)oc3ccc(S(=O)(=O)N[C@@H](C(=O)O)C(C)C)cc34)sc2c1` [Compound 296, (R)-2-(7-(6-methoxybenzo[d]thiazol-2-yl)dibenzo[b,d]furan-2-sulfonamido)-3-methylbutanoic acid] gave a negative-log IC50 (pIC50) of 8.51.

For `CC(C)[C@H](NS(=O)(=O)c1ccc2c(c1)oc1cc(-c3cc4ccccc4s3)ccc12)C(=O)O` [Compound 136, (S)-2-(7-(benzo[b]thiophen-2-yl)dibenzo[b,d]furan-3-sulfonamido)-3-methylbutanoic acid], the pIC50 was over 8.82.

On to `COCC#Cc1ccc2c(c1)sc1cc(S(=O)(=O)N[C@@H](C(=O)O)C(C)C)ccc12` [Compound 90, (R)-2-(7-(3-methoxyprop-1-ynyl)dibenzo[b,d]thiophene-3-sulfonamido)-3-methylbutanoic acid], for which the negative-log IC50 (pIC50) is 7.82.

For `CC(C)[C@H](NS(=O)(=O)c1ccc2c(c1)sc1ccc(-c3cnn(Cc4ccccc4)c3)cc12)C(=O)O` [Compound 44, (S)-2-(8-(1-benzyl-1H-pyrazol-4-yl)dibenzo[b,d]thiophene-3-sulfonamido)-3-methylbutanoic acid], the pIC50 is 7.19.

Compound `CC(C)[C@@H](NS(=O)(=O)c1ccc2sc3cc(-c4nc5ccccc5s4)ccc3c2c1)C(=O)O` [Compound 286, (R)-2-(7-(benzo[d]thiazol-2-yl)dibenzo[b,d]thiophene-2-sulfonamido)-3-methylbutanoic acid] had a negative-log IC50 (pIC50) of 6.89.

In the case of `CC(C)[C@H](NS(=O)(=O)c1ccc2c(c1)oc1cc(-c3nc(C(F)(F)F)c(Cl)s3)ccc12)C(=O)O` [Compound 233, (S)-2-(7-(5-chloro-4-(trifluoromethyl)thiazol-2-yl)dibenzo[b,d]furan-3-sulfonamido)-3-methylbutanoic acid], the negative logarithm of the IC50 (pIC50) is over 8.82.

The compound `CCc1ccc(-c2ccc3oc4cc(S(=O)(=O)N[C@H](C(=O)O)C(C)C)ccc4c3c2)s1` [Compound 196, (S)-2-(8-(5-ethylthiophen-2-yl)dibenzo[b,d]furan-3-sulfonamido)-3-methylbutanoic acid] showed a pIC50 of over 8.82.

`CC(C)[C@H](NS(=O)(=O)c1ccc2c(c1)oc1ccc(-c3sc(Cl)cc3Cl)cc12)C(=O)O` [Compound 75, (S)-2-(8-(3,5-dichlorothiophen-2-yl)dibenzo[b,d]furan-3-sulfonamido)-3-methylbutanoic acid] showed a pIC50 of over 8.82.

As to `CC(C)[C@@H](NS(=O)(=O)c1ccc2oc3cc(-c4cc5ccccc5s4)ccc3c2c1)C(=O)O` [Compound 100, (R)-2-(7-(benzo[b]thiophen-2-yl)dibenzo[b,d]furan-2-sulfonamido)-3-methylbutanoic acid], the pIC50 was 8.31.

`CC(C)[C@H](NS(=O)(=O)c1ccc2c(c1)oc1ccc(-c3ccc4oc5cc(S(=O)(=O)N[C@H](C(=O)O)C(C)C)ccc5c4c3)cc12)C(=O)O` [Compound 125] showed a negative-log IC50 (pIC50) of 7.77.

Take `CCc1ccc(-c2cc(-c3ccc4c(c3)oc3cc(S(=O)(=O)N[C@H](C(=O)O)C(C)C)ccc34)sc2CC)s1` [Compound 166, (S)-2-(7-(2′,5-diethyl-2,3′-bithiophen-5′-yl)dibenzo[b,d]furan-3-sulfonamido)-3-methylbutanoic acid]: the negative-log IC50 (pIC50) is 7.03. This pIC50 is 0.74 log units lower than that of the compound before.

Regarding `CC(C)[C@@H](NS(=O)(=O)c1ccc2oc3cc(-c4nc(C(F)(F)F)c(Cl)s4)ccc3c2c1)C(=O)O` [Compound 295, (R)-2-(7-(5-chloro-4-(trifluoromethyl)thiazol-2-yl)dibenzo[b,d]furan-2-sulfonamido)-3-methylbutanoic acid], the negative-log IC50 (pIC50) is 7.82.

On to `CC(C)[C@@H](NS(=O)(=O)c1ccc2oc3cc(/C=C/C4CCCCC4)ccc3c2c1)C(=O)O` [Compound 104, (R,E)-2-(7-(2-cyclohexylvinyl)dibenzo[b,d]furan-2-sulfonamido)-3-methylbutanoic acid], for which the pIC50 is 7.23. This pIC50 lies 0.59 log units lower than the previous one.

With `CC(C)[C@H](NS(=O)(=O)c1ccc2c(c1)oc1ccc(-c3nc(C(F)(F)F)cs3)cc12)C(=O)O` [Compound 126, (S)-3-methyl-2-(8-(4-(trifluoromethyl)thiazol-2-yl)dibenzo[b,d]furan-3-sulfonamido)butanoic acid], the pIC50 was over 8.82.

`CC(C)[C@@H](NS(=O)(=O)c1ccc2oc3cc(-c4noc(C5CCCCC5)n4)ccc3c2c1)C(=O)O` [Compound 192, (R)-2-(7-(5-cyclohexyl-1,2,4-oxadiazol-3-yl)dibenzo[b,d]furan-2-sulfonamido)-3-methylbutanoic acid] gave a negative logarithm of the IC50 (pIC50) of 8.14.

Take `CC(C)[C@H](NS(=O)(=O)c1ccc2c(c1)sc1ccc(-c3ccc(-c4ccc(Cl)nc4)nc3)cc12)C(=O)O` [Compound 61, (S)-2-(8-(6′-chloro-2,3′-bipyridin-5-yl)dibenzo[b,d]thiophene-3-sulfonamido)-3-methylbutanoic acid]: the pIC50 was 6.56.

Regarding `CC(C)[C@H](NS(=O)(=O)c1ccc2c(c1)oc1ccc(-c3ccoc3Cl)cc12)C(=O)O` [Compound 94, (S)-2-(8-(2-chlorofuran-3-yl)dibenzo[b,d]furan-3-sulfonamido)-3-methylbutanoic acid], the negative logarithm of the IC50 (pIC50) is over 8.82.

In turn, `CC(C)[C@H](NS(=O)(=O)c1ccc2c(c1)oc1ccc(-c3nc(Br)cs3)cc12)C(=O)O` [Compound 217, (S)-2-(8-(4-bromothiazol-2-yl)dibenzo[b,d]furan-3-sulfonamido)-3-methylbutanoic acid] showed a pIC50 of over 8.82.

In the case of `CC(C)Cc1ncc(-c2ccc3c(c2)oc2ccc(S(=O)(=O)N[C@@H](C(=O)O)C(C)C)cc23)s1` [Compound 244, (R)-2-(7-(2-isobutylthiazol-5-yl)dibenzo[b,d]furan-2-sulfonamido)-3-methylbutanoic acid], the pIC50 is 8.47.
